Assay results as given in BindingDB's records for doi:10.1021/jm950507y (Glaxo Wellcome Research Institute, 1996).

Test: Average concentration of compound to cause 50% inhibition of topoisomerase-1 isolated from calf thymus

SMILES | IC50 [nM]
CC[C@@]1(O)C(=O)OCc2c1cc1n(c2=O)Cc2c-1nc1cc3c(cc1c2C[n+]1ccccc1)OCCO3 [8-ethyl-8-hydroxy-15-(1-pyridiniumylmethyl)-(8S)-2,3,8,9,12,14-hexahydro-11H-[1,4]dioxino[3,2-g]pyrano[3',4':6,7]indolizino[1,2-b]quinoline-9,12-dione] | 190
CC[C@@]1(O)C(=O)OCc2c1cc1n(c2=O)Cc2c-1nc1cc3c(cc1c2C[n+]1ccncc1)OCCO3 [8-ethyl-8-hydroxy-15-pyrazin-1-ium-1-ylmethyl-(8S)-2,3,8,9,12,14-hexahydro-11H-[1,4]dioxino[3,2-g]pyrano[3',4':6,7]indolizino[1,2-b]quinoline-9,12-dione] | 180
